Test results as given in ChEMBL document CHEMBL3046638, “Synthesis and anticonvulsant activity of novel imidazol5(4H)one and 5-oxo-4,5-dihydroimidazol-1-yl)propanamide derivatives” (Med Chem Res, 2012).

How the values were obtained:
[1] = test system: Mus musculus; experiment: Anticonvulsant activity in Mus musculus albino (mouse) assessed as protection against maximal electroshock-induced seizures at 100 mg/kg, po after 1 hr relative to phenytoin; type: functional
[2] = test system: Mus musculus; experiment: Anticonvulsant activity in Mus musculus albino (mouse) assessed as protection against maximal electroshock-induced seizures at 100 mg/kg, po after 1 hr; type: functional
[3] = test system: Mus musculus; experiment: Neurotoxicity in Mus musculus albino (mouse) assessed as stability time on rotorod at 100 mg/kg, po after 30 min; type: toxicity, organism-based; design: dose 100 mg/kg, route oral; conditions: in vivo, 0.5 h

Structure (SMILES)	Activity [1] [%]	Activity [2] [%]	Time [3] [s]
COc1ccc(C(=O)CNN2C(=O)/C(=C/c3ccc(F)cc3F)N=C2c2ccc(F)cc2)cc1	71.42	–	–
O=C(CNN1C(=O)/C(=C/c2ccc(F)cc2F)N=C1c1ccc(F)cc1)c1ccc(O)cc1	57.15	–	–
CC(C(=O)Nc1ccccc1)N1C(=O)/C(=C/c2ccc(F)cc2F)N=C1c1ccc(F)cc1 (centres undefined)	24.77	-0.94	–
CC(C(=O)Nc1ccc(C#N)cc1)N1C(=O)/C(=C/c2ccc(F)cc2F)N=C1c1ccc(F)cc1 (centres undefined)	96.42	–	285
COc1ccc(NC(=O)C(C)N2C(=O)/C(=C/c3ccc(F)cc3F)N=C2c2ccc(F)cc2)cc1 (centres undefined)	96.42	–	219
O=C(CNN1C(=O)/C(=C/c2ccc(F)cc2F)N=C1c1ccc(F)cc1)c1ccccc1	37.5	49.96	–
O=C(CNN1C(=O)/C(=C/c2ccc(F)cc2F)N=C1c1ccc(F)cc1)c1ccc([N+](=O)[O-])cc1	64.28	–	–
O=C(CNN1C(=O)/C(=C/c2ccc(F)cc2F)N=C1c1ccc(F)cc1)c1ccc(-c2ccccc2)cc1	96.42	–	–
Cc1ccc(C(=O)CNN2C(=O)/C(=C/c3ccc(F)cc3F)N=C2c2ccc(F)cc2)cc1	92.84	–	174
